According to patent US10238630B2, “Use of eribulin and poly (ADP ribose) polymerase (PARP) inhibitors as combination therapy for the treatment of cancer” (Eisai R&D Management Co., Ltd., priority 2014, dated 2019):

Tests used:
[1] = tested on: MDA-MB-436 human breast cancer xenografts; test: Antitumor activity against subcutaneous MDA-MB-436 human breast cancer xenografts in SCID mice (three studies); format: in vivo
Procedure: MDA-MB-436 human triple negative breast cancer cells are BRCA1 mutant and PTEN null. Cells were maintained in monolayer cultures in RPMI-1640 growth medium supplemented with 10% fetal bovine serum at 37° C. in a 5% CO2 humidified incubator. On the day of inoculation, cells were harvested by trypsinization, washed, and resuspended in ice-cold PBS. Female immunodeficient SCID mice were inoculated subcutaneously near the right axillary area with MDA-MB-436 cells (5×10^6) in a 1:1 ratio (50 μL each) with Matrigel™ in a volume of 0.1 mL in phosphate buffered saline, using a 26-gauge needle. A total of 125 mice, approximately 6 weeks old were implanted with MDA-MB-436 cells.
E7449, carboplatin and E7389 were evaluated as single agents and in combination for antitumor activity against MDA-MB-436 human breast cancer xenografts in SCID mice. Three separate studies were performed. The first experiment consisted of a vehicle control group, an E7449 single agent group, two groups treated with single agent E7389 and 2 combination drug-treated groups (Table 1). Thirty mice were inoculated with MDA-MB-436 cells and on Day 58 following implantation, tumor volumes were measured and mice were randomized into the 6 treatment groups based on tumor volume (average of 300 mm^3). Following randomization, drug treatment was initiated. Groups A to D were composed of 5 mice and groups E and F consisted of 4 mice for a total of 28 mice on the first day of treatment. E7449 was formulated in 0.5% methyl cellulose and orally administered once daily for 28 days (starting on Day 58) at 60 mg/kg based on body weight at 0.1 mL per 10 g. E7389 was formulated in saline and was intravenously administered once every 4 days, 4 times (Day 58, 62, 66, and 70) at a dosage of 0.4 or 1.6 mg/kg as single agent or in combination with E7449, based on body weight at 0.1 mL per 10 g. The control group was treated with oral vehicle (0.5% methyl cellulose in water) daily and intravenous vehicle (saline) once every 4 days, 4 times. E7449 or vehicle was administered first and when dosing of all animals was complete, E7389 was administered to animals receiving the combination.
The second experiment consisted of a vehicle control group, an E7449 single agent group, 2 groups treated with single agent carboplatin, and 2 combination drug-treated groups (Table 2). Thirty-five mice were inoculated with MDA-MB-436 cells and on Day 57, following implantation, tumor volumes were measured and mice were randomized into 6 treatment groups based on tumor volume (average of 250 mm^3). Following randomization drug treatment was initiated. Groups A to D were composed of 5 mice and groups E and F consisted of 6 mice for a total of 32 mice on the first day of treatment. E7449, formulated in 0.5% methyl cellulose was orally administered daily for 28 days (starting on Day 57), at 60 mg/kg based on body weight at 0.1 mL per 10 g. Carboplatin was formulated in saline and was intravenously administered once on the first day of treatment (Day 57) at a dosage of 15 or 60 mg/kg as a single agent or in combination with E7449 based on body weight at 0.1 mL per 10 g. The control group was treated with oral vehicle (0.5% methyl cellulose in water) daily and intravenous vehicle (saline) once on Day 57. E7449 or vehicle was administered first, and when dosing of all animals was complete carboplatin was administered to animals receiving the combination.
The third experiment consisted of a vehicle control group, 3 groups treated with single agent E7449, E7389, or carboplatin, 3 groups treated with double combinations of E7449+E7389, E7449+carboplatin, and E7389+carboplatin and a group treated with the three-drug combination (Table 3). Sixty mice were inoculated with MDA-MB-436 cells and on Day 41 following implantation, tumor volumes were measured and mice were randomized into 8 treatment groups based on tumor volume (average of 250 mm^3). Following randomization drug treatment was initiated.

[2] = tested on: MDA-MB-231 human breast cancer xenografts; test: Antitumor activity against subcutaneous MDA-MB-231 human breast cancer xenografts in athymic mice (two studies); format: in vivo; conditions: carboplatin 15 and 60 mg/kg IV QDx1, single agent
Procedure: MDA-MB-231 human triple negative breast cancer cells are wild type for BRCA1 and 2 and PTEN. Cells were maintained in monolayer cultures in RPMI-1640 growth medium supplemented with 10% fetal bovine serum at 37° C. in a 5% CO2 humidified incubator. On the day of inoculation, cells were harvested by trypsinization, washed, and resuspended in ice-cold PBS. Female immunodeficient athymic mice were inoculated subcutaneously near the right axillary area with MDA-MB-231 cells (5×10^6) in a 1:1 ratio (50 μL each) with Matrigel™ in a volume of 0.1 mL in phosphate buffered saline, using a 26-gauge needle. A total of 94 mice, approximately 6 weeks old were implanted with MDA-MB-231 cells.
E7449, carboplatin and E7389 were evaluated as single agents and in combination for antitumor activity against MDA-MB-231 human breast cancer xenografts in athymic mice. The first experiment consisted of a vehicle control group, an E7449 single agent group, 2 groups treated with single agent E7389 and 2 combination drug-treated groups (Table 5). Thirty-nine mice were inoculated with MDA-MB-231 cells and on Day 21 following implantation, tumor volumes were measured and mice were randomized into the 6 treatment groups based on tumor volume (average of 300 mm^3). Following randomization drug treatment was initiated. Each group was composed of 5 mice for a total of 30 mice on the first day of treatment. E7449 was formulated in 0.5% methyl cellulose and orally administered once daily for 28 days at 100 mg/kg based on body weight at 0.1 mL per 10 g. E7389 was formulated in saline and was intravenously administered once every 4 days, 4 times (Day 21, 25, 29, and 33) at a dosage of 0.05 or 0.1 mg/kg as single agent or in combination with E7449, based on body weight at 0.1 mL per 10 g. The control group was treated with oral vehicle (0.5% methyl cellulose in water) daily and intravenous vehicle (saline) once every 4 days, 4 times. E7449 or vehicle was administered first and when dosing of all animals was complete E7389 was administered to animals receiving the combination.
The second experiment consisted of a vehicle control group, 2 groups treated with single agent E7449, 2 groups treated with single agent carboplatin and 3 combination drug-treated groups (Table 6). Fifty five mice were inoculated with MDA-MB-231 cells and on Day 18 following implantation, tumor volumes were measured and mice were randomized into 8 treatment groups based on tumor volume (average of 300 mm^3). Following randomization drug treatment was initiated. Each group consisted of 5 mice for a total of 40 mice on the first day of treatment. E7449, formulated in 0.5% methyl cellulose was orally administered daily for 28 days, at 60 or 100 mg/kg based on body weight at 0.1 mL per 10 g. Carboplatin was formulated in saline and was intravenously administered once on the first day of treatment (Day 18) at a dosage of 15 or 60 mg/kg as a single agent or in combination with E7449 based on body weight at 0.1 mL per 10 g. The control group was treated with oral vehicle (0.5% methyl cellulose in water) daily and intravenous vehicle (saline) once on Day 18. E7449 or vehicle was administered first and when dosing of all animals was complete carboplatin was administered to animals receiving the combination.
Drug treatment was initiated 21 or 18 days post tumor implantation, in the E7389 and carboplatin combination studies respectively, and continued for 28 days. […]

## N.N.O=C([O-])C1(C(=O)[O-])CCC1.[Pt+2] [carboplatin]
[1]; E7449+carboplatin study, carboplatin 15 and 60 mg/kg IV QDx1, single agent
  antitumor effect (tumor volume): Dose-dependent antitumor activity
[1]; triple combination study, carboplatin 7.5 mg/kg IV QDx1, single agent
  antitumor effect (tumor volume): statistically significant tumor growth inhibition
[2]
  antitumor effect (tumor volume): Modest antitumor activity
